According to patent US11590129B2, “Combination therapy with an antitumor alkaloid” (PHARMA MAR, S.A., priority 2010, dated 2023):
pIC50: −log10 of the molar value. Like-named read-outs stand apart in the source and are kept apart here. Starred links: 1 amine or outer side, 2 acyl side, 3 side chain; linkers in the order of their positions; H or OH if unused. Positions of bridges follow the written chain, without caps; N, C: chain ends. Non-standard residues stand in square brackets, D forms with d. Residues, ends and D or L forms follow the SMILES beside them. Chains are numbered I, II in the order given. Actinocin(9to1) = Cc1c2oc3c(C)ccc(C(=O)[*:1])c3nc-2c(C(=O)[*:2])c(N)c1=O; NMeV = CN[C@H](C(=O)O)C(C)C; Sar = CNCC(=O)O

What was measured:
[1] = tested on: HGC-27 human gastric carcinoma cell line; assay: cells
Procedure: (§1) a. […] Briefly, cells were harvested and seeded in 96 well microtiter plates at a density of 5,000 cells in 150 μL of culture medium and incubated for 24 hours in drug-free medium before treatment with vehicle alone or test compounds for 72 h.
(§2) The cytotoxic effect was measured by the MTT reduction assay, in which 3-(4,5-Dimethylthiazol-2-yl)-2,5-diphenyltetrazolium bromide, a tetrazole, which is reduced to purple formazan in the mitochondria of living cells, was used. MTT (50 μL of 1 mg/mL stock solution) was added to the wells and incubated for 8 hours at 37° C. until formazan crystals were formed. After gently removing the culture medium, DMSO was added to dissolve the insoluble purple formazan product into a colored solution. […] Results were expressed as percentage of control cell growth.
(§3) b. In a second set of assays, A549 human tumor cells were incubated with PM01183 in combination with each of the agents mentioned above.
(§4) As a visual aid, response values were plotted on a scatter plot with dose ratios given on the x-axis and % response values on the y-axis. […] In cases where response values at the two endpoints were approximately equivalent, points lying above or below this predicted line of additivity could be interpreted as representing antagonistic or synergistic drug interaction, respectively.
(§5) Additional serial dilutions were prepared in serum-free culture medium to achieve a final 4× concentration. Aliquots of 50 μL of each diluted compound were added per well.
HGC-27 was the human gastric carcinoma cell line selected for this assay.

[2] = tested on: A549 human lung carcinoma cell line; assay: MTT cytotoxicity assay in A549 cells: IC50 of single agents and combinations with PM01183; format: cell-based
Procedure: as §5
A549 was the human lung carcinoma cell line selected for this assay.
as §1, §2, §3, §4

[3] = tested on: PANC-1 human pancreatic carcinoma cell line; assay: cells
Procedure: as §1, §2, §3, §4, §5
PANC-1 was the human pancreatic carcinoma cell line selected for this assay.

[4] = tested on: HT-29 human colon adenocarcinoma cell line; assay: cells
Procedure: as §1, §2, §3, §4, §5
HT-29 was the human colon adenocarcinoma cell line selected for this assay.

[5] = tested on: IGROV-1 human ovarian adenocarcinoma cell line; assay: cells
Procedure: as §1, §2, §3, §4, §5
IGROV-1 was the human ovarian adenocarcinoma cell line selected for this assay.

[6] = tested on: PC-3 human prostate cancer cell line; assay: cells
Procedure: as §1, §2, §3, §4, §5
PC-3 was the human prostate adenocarcinome cell line selected for this assay.

[7] = tested on: A673 human rhabdomyosarcoma cell line; assay: cells
Procedure: as §1, §2, §3, §4, §5
A673 was the human rhabdomyosarcoma cell line selected for this assay.

[8] = tested on: RXF-393 human kidney carcinoma cell line; assay: cells
Procedure: as §1, §2, §3, §4, §5

[9] = tested on: MDA-MB-231 human breast adenocarcinoma cell line; assay: cells
Procedure: as §1, §2, §3, §4, §5

[10] = tested on: U87-MG human glioblastoma cell line; assay: cells
Procedure: as §1, §2, §3, §4, §5
U87-MG was the human glioblastoma cell line selected for this assay.

[11] = tested on: HepG2 human hepatocellular liver carcinoma cell line; assay: MTT cytotoxicity assay in HepG2 cells: IC50 of single agents and combinations with PM01183; format: cell-based
Procedure: as §1, §2, §3, §4, §5
HepG2 was the human hepatocellular liver carcinoma cell line selected for this assay.

[12] = tested on: SK-MEL-2 human melanoma cell line; assay: cells
Procedure: as §1, §2, §3, §4, §5
SK-MEL-2 was the human melanoma cell line selected for this assay.

[13] = tested on: HT1080 tumors; assay: Human fibrosarcoma (HT1080) orthotopically implanted in athymic nude mice, total diameter (tumor+leg) % T/C; format: in vivo
Procedure: Female athymic nude mice (Harlan Laboratories Models, S.L. (Barcelona, Spain) were utilized for all experiments. Animals were housed in individually ventilated cages, up to ten per cage in a 12-hour light-dark cycle at 21-23° C. and 40-60% humidity. The mice were allowed free access to irradiated standard rodent diet and sterilized water. Animals were acclimated for at least 5 days prior to tumor implantation with a tumor cell suspension.
HT1080 cells were grown at 37° C. with 5% CO2 in Minimum Essential Medium Eagle (MEME). Each animal was orthotopically implanted into gastroecnemius muscle by an intramuscular injection using 26G needle and a 1 cc syringe, with 5×10^6 HT1080 cells, from in vitro passage 9, suspended in serum free medium, without antibiotics.
Total diameter (tumor+leg) measurements were determined by using digital caliper (Fowler Sylvac, S235PAT). This total diameter and animal body weights were measured 2-3 times per week starting from the first day of treatment.
Treatment tolerability was assessed by monitoring body weight evolution, clinical signs as well as evidences of local damage in the injection site.
PM01183 was provided in the form of vials of lyophilized PM01183 cake which was reconstituted with water for infusion to a concentration of 0.2 mg/mL. The PM01183 stock solution was further diluted in 5% glucose solution for injection to the dosing formulation concentrations. Dacarbazine was provided in the form of a solution prepared by diluting the product with 5% glucose solution for injection to the target final concentration.
Dose level groups were administered either as single agents or in combination.
Comparison of the median total diameter (tumor+leg) in the treatment groups (T) to the median total diameter (tumor+leg) in the control group (T/C×100%) was used for evaluation of the antitumor efficacy.

[14] = Homo sapiens, HepG2, 72 hours drug exposure, MTT, read-out: IC50

Cc1c2oc3c(C)ccc(C(=O)N[C@@H]4C(=O)N[C@H](C(C)C)C(=O)N5CCC[C@H]5C(=O)N(C)CC(=O)N(C)[C@@H](C(C)C)C(=O)O[C@@H]4C)c3nc-2c(C(=O)N[C@@H]2C(=O)N[C@H](C(C)C)C(=O)N3CCC[C@H]3C(=O)N(C)CC(=O)N(C)[C@@H](C(C)C)C(=O)O[C@@H]2C)c(N)c1=O [Actinomycin D, actinomycin D] (I: T[dV]P[Sar][NMeV] / II: T[dV]P[Sar][NMeV]; ester I:1-I:C, II:1-II:C; linker I:N-II:N via Actinocin(9to1))
pIC50 ([1]; HGC-27, 72 hours drug exposure, MTT): 8.43
pIC50 ([2]; A549, 72 hours drug exposure, MTT, read-out: IC50): 8.33
pIC50 ([3]; PANC-1, 72 hours drug exposure, MTT): 7.66
pIC50 ([4]; HT-29, 72 hours drug exposure, MTT): 8.49
pIC50 ([5]; IGROV-1, 72 hours drug exposure, MTT): 8.48
pIC50 ([6]; PC-3, 72 hours drug exposure, MTT): 8.00
pIC50 ([7]; A673, 72 hours drug exposure, MTT): 9.02
pIC50 ([8]; RXF-393, 72 hours drug exposure, MTT): 9.15
pIC50 ([9]; MDA-MB-231, 72 hours drug exposure, MTT): 9.34

CC(=O)O[C@@]12CO[C@@H]1C[C@H](O)[C@@]1(C)C(=O)[C@H](O)C3=C(C)[C@@H](OC(=O)[C@H](O)[C@@H](NC(=O)OC(C)(C)C)c4ccccc4)C[C@@](O)([C@@H](OC(=O)c4ccccc4)[C@H]21)C3(C)C [Docetaxel, docetaxel]
pIC50 ([10]; Homo sapiens, U-87 MG, 72 h): 7.00
pIC50 ([2]; Homo sapiens, A549, 72 hours drug exposure, MTT, read-out: IC50): 8.52
pIC50 ([4]; Homo sapiens, HT-29, 72 h): 9.49
pIC50 [11, 14]: 6.30
pIC50 ([5]; Homo sapiens, IGROV-1, 72 h): 7.30
pIC50 ([6]; Homo sapiens, PC-3, 72 h): 7.73
pIC50 ([7]; Homo sapiens, A673, 72 h): 9.19
pIC50 ([8]; Homo sapiens, RXF 393, 72 h): 9.23
pIC50 ([9]; Homo sapiens, MDA-MB-231, 72 h): 8.60

CC(C)C[C@H](NC(=O)[C@H](Cc1ccccc1)NC(=O)c1cnccn1)B(O)O [Bortezomib, bortezomib]
pIC50 ([10]; Homo sapiens, U-87 MG, 72 h): 6.40
pIC50 ([1]; Homo sapiens, HGC-27, 72 h): 8.25
pIC50 ([2]; Homo sapiens, A549, 72 h): 8.51
pIC50 ([3]; Homo sapiens, PANC-1, 72 h): 6.38
pIC50 ([4]; Homo sapiens, HT-29, 72 h): 8.21
pIC50 ([11]; Homo sapiens, HepG2, 72 h): 6.41
pIC50 ([6]; Homo sapiens, PC-3, 72 h): 6.10

C#Cc1cccc(Nc2ncnc3cc(OCCOC)c(OCCOC)cc23)c1 [Erlotinib, erlotinib]
pIC50 ([10]; Homo sapiens, U-87 MG, 72 h): 3.83
pIC50 ([1]; Homo sapiens, HGC-27, 72 h): 5.12
pIC50 ([2]; Homo sapiens, A549, 72 h): 5.00
pIC50 ([3]; Homo sapiens, PANC-1, 72 h): 6.38
pIC50 ([4]; Homo sapiens, HT-29, 72 h): 4.59
pIC50 [11, 14]: 5.07
pIC50 ([5]; Homo sapiens, IGROV-1, 72 h): 5.10
pIC50 ([6]; Homo sapiens, PC-3, 72 h): 3.63
pIC50 ([7]; Homo sapiens, A673, 72 h): 4.30
pIC50 ([8]; Homo sapiens, RXF 393, 72 h): 5.32
pIC50 ([9]; Homo sapiens, MDA-MB-231, 72 h): 4.00

CO[C@@]12[C@H](COC(N)=O)C3=C(C(=O)C(C)=C(N)C3=O)N1C[C@@H]1N[C@@H]12 [Mitomycin C, mitomycin C]
pIC50 ([2]; read-out: IC50): 3.60
pIC50 [4]: 5.70
pIC50 [5]: 5.52
pIC50 [6]: 5.00
pIC50 [7]: 5.52
pIC50 [12]: 6.05
pIC50 [8]: 5.05
pIC50 [9]: 5.70

CN(C)/N=N/c1[nH]cnc1C(N)=O [Dacarbazine, dacarbazine]
pIC50 ([10]; Homo sapiens, U-87 MG, 72 h): 3.15
pIC50 ([1]; Homo sapiens, HGC-27, 72 h): 3.46
pIC50 ([2]; Homo sapiens, A549, 72 h): 3.22
pIC50 ([4]; Homo sapiens, HT-29, 72 h): 4.61
pIC50 ([5]; Homo sapiens, IGROV-1, 72 h): 3.40
% T/C on day 0 ([13]; Dacarbazine 37.5 mg/kg): 100%
% T/C on day 2 ([13]; Dacarbazine 37.5 mg/kg): 51.8%
% T/C on day 4 ([13]; Dacarbazine 37.5 mg/kg): 54.3%
% T/C on day 7 ([13]; Dacarbazine 37.5 mg/kg): 65.4%
% T/C on day 9 ([13]; Dacarbazine 37.5 mg/kg): 61.3%
% T/C on day 11 ([13]; Dacarbazine 37.5 mg/kg): 47.9%
% T/C on day 14 ([13]; Dacarbazine 37.5 mg/kg): 55.1%
% T/C on day 16 ([13]; Dacarbazine 37.5 mg/kg): 62.1%
% T/C on day 0 ([13]; Dacarbazine 112.5 mg/kg): 100%
% T/C on day 2 ([13]; Dacarbazine 112.5 mg/kg): 48.1%
% T/C on day 4 ([13]; Dacarbazine 112.5 mg/kg): 34.3%
% T/C on day 7 ([13]; Dacarbazine 112.5 mg/kg): 53.8%
% T/C on day 9 ([13]; Dacarbazine 112.5 mg/kg): 48.0%
% T/C on day 11 ([13]; Dacarbazine 112.5 mg/kg): 37.5%
% T/C on day 14 ([13]; Dacarbazine 112.5 mg/kg): 43.2%
% T/C on day 16 ([13]; Dacarbazine 112.5 mg/kg): 53.2%
% T/C on day 0 ([13]; Dacarbazine 150.0 mg/kg): 100%
% T/C on day 2 ([13]; Dacarbazine 150.0 mg/kg): 40.7%
% T/C on day 4 ([13]; Dacarbazine 150.0 mg/kg): 28.6%
% T/C on day 7 ([13]; Dacarbazine 150.0 mg/kg): 30.8%
% T/C on day 9 ([13]; Dacarbazine 150.0 mg/kg): 44.0%
% T/C on day 11 ([13]; Dacarbazine 150.0 mg/kg): 37.5%
% T/C on day 14 ([13]; Dacarbazine 150.0 mg/kg): 44.9%
% T/C on day 16 ([13]; Dacarbazine 150.0 mg/kg): 57.3%
pIC50 ([7]; Homo sapiens, A673, 72 h): 3.52
pIC50 ([12]; Homo sapiens, SK-MEL-2, 72 h): 3.20
pIC50 ([8]; Homo sapiens, RXF 393, 72 h): 3.10
pIC50 ([9]; Homo sapiens, MDA-MB-231, 72 h): 4.72

O=C1[O][Pt]2([NH][C@@H]3CCCC[C@H]3[NH]2)[O]C1=O [Oxaliplatin, oxaliplatin]
pIC50 [10]: 3.72
pIC50 [1]: 3.97
pIC50 ([2]; read-out: IC50): 3.05
pIC50 [3]: 3.74
pIC50 [4]: 3.99
pIC50 ([11]; read-out: IC50): 4.55
pIC50 [5]: 5.07
pIC50 [6]: 3.77
pIC50 [7]: 4.11
pIC50 [9]: 3.97
